# Active and inactive are the calls of the source. No rule for the calls is given here.
# System: rodent lifetime carcinogenesis bioassay, tumor incidence TD50
# Assay: chronic cancer bioassays in animals – CPDB, compiled studies (AID 1745844)
# [1] = rat, strain Wistar, males, in feed, site: liver, lesion: hepatocellular adenoma, dosed 78 weeks, study length 78 weeks
compound,measurement,setting,value
O=P(O)(OCC(Br)CBr)OCC(Br)CBr (stereo unspecified),TD50,"rat, strain Wistar, females, in feed, site: esophagus, lesion: squamous-cell papilloma, dosed 78 weeks, study length 78 weeks",107 mg/kg/day
same,TD50,"rat, strain Wistar, females, in feed, site: esophagus, lesion: squamous-cell papilloma, dosed 96 weeks, study length 101 weeks",394 mg/kg/day
same,TD50,"rat, strain Wistar, females, in feed, site: forestomach, lesion: several types, types named in the paper, dosed 78 weeks, study length 78 weeks",19.6 mg/kg/day
same,TD50,"rat, strain Wistar, females, in feed, site: forestomach, lesion: several types, types named in the paper, dosed 96 weeks, study length 101 weeks",40 mg/kg/day
same,TD50,"rat, strain Wistar, females, in feed, site: forestomach, lesion: squamous-cell carcinoma, dosed 78 weeks, study length 78 weeks",171 mg/kg/day
same,TD50,"rat, strain Wistar, females, in feed, site: forestomach, lesion: squamous-cell carcinoma, dosed 96 weeks, study length 101 weeks",301 mg/kg/day
same,TD50,"rat, strain Wistar, females, in feed, site: forestomach, lesion: squamous-cell papilloma, dosed 52 weeks, study length 52 weeks",47.6 mg/kg/day
same,TD50,"rat, strain Wistar, females, in feed, site: forestomach, lesion: squamous-cell papilloma, dosed 78 weeks, study length 78 weeks",34.5 mg/kg/day
same,TD50,"rat, strain Wistar, females, in feed, site: forestomach, lesion: squamous-cell papilloma, dosed 96 weeks, study length 101 weeks",60.3 mg/kg/day
same,TD50,"rat, strain Wistar, females, in feed, site: kidney, lesion: renal-cell adenoma, dosed 96 weeks, study length 101 weeks",1250 mg/kg/day
same,TD50,"rat, strain Wistar, females, in feed, site: kidney, lesion: renal-cell carcinoma, dosed 96 weeks, study length 101 weeks",1250 mg/kg/day
same,TD50,"rat, strain Wistar, females, in feed, site: kidney, lesion: several types, types named in the paper, dosed 96 weeks, study length 101 weeks",608 mg/kg/day
same,TD50,"rat, strain Wistar, females, in feed, site: liver, lesion: hepatocellular adenoma, dosed 52 weeks, study length 52 weeks",33.2 mg/kg/day
same,TD50,"rat, strain Wistar, females, in feed, site: liver, lesion: hepatocellular adenoma, dosed 78 weeks, study length 78 weeks",20.6 mg/kg/day
same,TD50,"rat, strain Wistar, females, in feed, site: liver, lesion: hepatocellular carcinoma, dosed 52 weeks, study length 52 weeks",35.1 mg/kg/day
same,TD50,"rat, strain Wistar, females, in feed, site: liver, lesion: hepatocellular carcinoma, dosed 78 weeks, study length 78 weeks",20.1 mg/kg/day
same,TD50,"rat, strain Wistar, females, in feed, site: liver, lesion: hepatocellular carcinoma, dosed 96 weeks, study length 101 weeks",37.1 mg/kg/day
same,TD50,"rat, strain Wistar, females, in feed, site: liver, lesion: several types, types named in the paper, dosed 52 weeks, study length 52 weeks",11.8 mg/kg/day
same,TD50,"rat, strain Wistar, females, in feed, site: liver, lesion: several types, types named in the paper, dosed 78 weeks, study length 78 weeks",11.9 mg/kg/day
same,TD50,"rat, strain Wistar, females, in feed, site: liver, lesion: several types, types named in the paper, dosed 96 weeks, study length 101 weeks",27.8 mg/kg/day
same,TD50,"rat, strain Wistar, females, in feed, site: small intestine, lesion: adenocarcinoma, dosed 78 weeks, study length 78 weeks",107 mg/kg/day
same,TD50,"rat, strain Wistar, females, in feed, site: small intestine, lesion: adenocarcinoma, dosed 96 weeks, study length 101 weeks",179 mg/kg/day
same,TD50,"rat, strain Wistar, females, in feed, site: tongue, lesion: several types, types named in the paper, dosed 96 weeks, study length 101 weeks",301 mg/kg/day
same,TD50,"rat, strain Wistar, females, in feed, site: tongue, lesion: squamous-cell papilloma, dosed 78 weeks, study length 78 weeks",107 mg/kg/day
same,TD50,"rat, strain Wistar, females, in feed, site: tongue, lesion: squamous-cell papilloma, dosed 96 weeks, study length 101 weeks",403 mg/kg/day
same,TD50,"rat, strain Wistar, males, in feed, site: esophagus, lesion: several types, types named in the paper, dosed 90 weeks, study length 102 weeks",45.1 mg/kg/day
same,TD50,"rat, strain Wistar, males, in feed, site: esophagus, lesion: squamous-cell papilloma, dosed 78 weeks, study length 78 weeks",16.5 mg/kg/day
same,TD50,"rat, strain Wistar, males, in feed, site: esophagus, lesion: squamous-cell papilloma, dosed 90 weeks, study length 102 weeks",62.1 mg/kg/day
same,TD50,"rat, strain Wistar, males, in feed, site: forestomach, lesion: several types, types named in the paper, dosed 52 weeks, study length 52 weeks",38.1 mg/kg/day
same,TD50,"rat, strain Wistar, males, in feed, site: forestomach, lesion: several types, types named in the paper, dosed 90 weeks, study length 102 weeks",37.8 mg/kg/day
same,TD50,"rat, strain Wistar, males, in feed, site: forestomach, lesion: squamous-cell carcinoma, dosed 52 weeks, study length 52 weeks",129 mg/kg/day
same,TD50,"rat, strain Wistar, males, in feed, site: forestomach, lesion: squamous-cell carcinoma, dosed 90 weeks, study length 102 weeks",979 mg/kg/day
same,TD50,"rat, strain Wistar, males, in feed, site: forestomach, lesion: squamous-cell papilloma, dosed 52 weeks, study length 52 weeks",60.9 mg/kg/day
same,TD50,"rat, strain Wistar, males, in feed, site: forestomach, lesion: squamous-cell papilloma, dosed 78 weeks, study length 78 weeks",56.1 mg/kg/day
same,TD50,"rat, strain Wistar, males, in feed, site: forestomach, lesion: squamous-cell papilloma, dosed 90 weeks, study length 102 weeks",43.5 mg/kg/day
same,TD50,"rat, strain Wistar, males, in feed, site: kidney, lesion: renal-cell adenoma, dosed 78 weeks, study length 78 weeks",56.1 mg/kg/day
same,TD50,"rat, strain Wistar, males, in feed, site: kidney, lesion: renal-cell adenoma, dosed 90 weeks, study length 102 weeks",45.1 mg/kg/day
same,TD50,"rat, strain Wistar, males, in feed, site: kidney, lesion: renal-cell carcinoma, dosed 52 weeks, study length 52 weeks",129 mg/kg/day
same,TD50,"rat, strain Wistar, males, in feed, site: kidney, lesion: several types, types named in the paper, dosed 90 weeks, study length 102 weeks",35 mg/kg/day
same,TD50,[1],28.3 mg/kg/day
same,TD50,"rat, strain Wistar, males, in feed, site: liver, lesion: hepatocellular carcinoma, dosed 52 weeks, study length 52 weeks",129 mg/kg/day
same,TD50,"rat, strain Wistar, males, in feed, site: liver, lesion: several types, types named in the paper, dosed 52 weeks, study length 52 weeks",129 mg/kg/day
same,TD50,"rat, strain Wistar, males, in feed, site: small intestine, lesion: adenocarcinoma, dosed 52 weeks, study length 52 weeks",60.9 mg/kg/day
same,TD50,"rat, strain Wistar, males, in feed, site: small intestine, lesion: adenocarcinoma, dosed 90 weeks, study length 102 weeks",79 mg/kg/day
same,TD50,"rat, strain Wistar, males, in feed, site: small intestine, lesion: adenoma, dosed 52 weeks, study length 52 weeks",129 mg/kg/day
same,TD50,"rat, strain Wistar, males, in feed, site: small intestine, lesion: several types, types named in the paper, dosed 52 weeks, study length 52 weeks",38.1 mg/kg/day
same,TD50,"rat, strain Wistar, males, in feed, site: tongue, lesion: squamous-cell carcinoma, dosed 78 weeks, study length 78 weeks",56.1 mg/kg/day
[Cl][Fe]([Cl])[Cl],TD50,"rat, strain F344/DuCrj, females, in drinking water, site: any site (literature study), lesion: one or several types, types not named, dosed 104 weeks, study length 112 weeks",505 mg/kg/day (inactive)
same,carcinogen call,"rat, strain F344/DuCrj, females, in drinking water, site: liver, lesion: neoplastic nodule, dosed 104 weeks, study length 112 weeks",negative (inactive)
same,carcinogen call,"rat, strain F344/DuCrj, males, in drinking water, site: any site (literature study), lesion: one or several types, types not named, dosed 104 weeks, study length 112 weeks",negative (inactive)
same,TD50,"rat, strain F344/DuCrj, males, in drinking water, site: liver, lesion: neoplastic nodule, dosed 104 weeks, study length 112 weeks",8810 mg/kg/day (inactive)
c1ccc2c(c1)[nH]c1ccccc12,TD50,"mouse, strain B6C3F1, females, in feed, site: forestomach, lesion: papilloma, dosed 96 weeks, study length 104 weeks",1290 mg/kg/day
same,TD50,"mouse, strain B6C3F1, females, in feed, site: forestomach, lesion: several types, types named in the paper, dosed 96 weeks, study length 104 weeks",1960 mg/kg/day
same,TD50,"mouse, strain B6C3F1, females, in feed, site: liver, lesion: hepatocellular carcinoma, dosed 96 weeks, study length 104 weeks",102 mg/kg/day
same,TD50,"mouse, strain B6C3F1, males, in feed, site: forestomach, lesion: papilloma, dosed 96 weeks, study length 104 weeks",7030 mg/kg/day
same,TD50,"mouse, strain B6C3F1, males, in feed, site: forestomach, lesion: several types, types named in the paper, dosed 96 weeks, study length 104 weeks",2790 mg/kg/day
same,TD50,"mouse, strain B6C3F1, males, in feed, site: forestomach, lesion: squamous-cell carcinoma, dosed 96 weeks, study length 104 weeks",4940 mg/kg/day
same,TD50,"mouse, strain B6C3F1, males, in feed, site: liver, lesion: hepatocellular carcinoma, dosed 96 weeks, study length 104 weeks",424 mg/kg/day
CNc1ncnc2nc[nH]c12,carcinogen call,"mouse, strain Swiss CD-1, females, in drinking water, site: liver, lesion: hepatocellular tumor, dosed 26 weeks, study length 104 weeks",negative (inactive)
same,carcinogen call,"mouse, strain Swiss CD-1, females, in drinking water, site: lung, lesion: one or several types, types not named, dosed 26 weeks, study length 104 weeks",negative (inactive)
same,carcinogen call,"mouse, strain Swiss CD-1, males, in drinking water, site: liver, lesion: hepatocellular tumor, dosed 26 weeks, study length 106 weeks",negative (inactive)
same,carcinogen call,"mouse, strain Swiss CD-1, males, in drinking water, site: lung, lesion: one or several types, types not named, dosed 26 weeks, study length 106 weeks",negative (inactive)
CC(O)CN(N=O)C(=O)NCCCl (stereo unspecified),TD50,"rat, strain Fischer 344, females, by gavage, site: all sites, lesion: mononuclear-cell leukemia, dosed 40 weeks, study length 95 weeks",0.962 mg/kg/day
same,TD50,"rat, strain Fischer 344, females, by gavage, site: liver, lesion: hepatocellular carcinoma, dosed 40 weeks, study length 95 weeks",8.81 mg/kg/day
same,TD50,"rat, strain Fischer 344, females, by gavage, site: liver, lesion: neoplastic nodule, dosed 40 weeks, study length 95 weeks",0.885 mg/kg/day
same,TD50,"rat, strain Fischer 344, females, by gavage, site: liver, lesion: several types, types named in the paper, dosed 40 weeks, study length 95 weeks",0.885 mg/kg/day
same,TD50,"rat, strain Fischer 344, males, by gavage, site: liver, lesion: hepatocellular carcinoma, dosed 35 weeks, study length 120 weeks",2.71 mg/kg/day
same,TD50,"rat, strain Fischer 344, males, by gavage, site: liver, lesion: neoplastic nodule, dosed 35 weeks, study length 120 weeks",1.17 mg/kg/day
same,TD50,"rat, strain Fischer 344, males, by gavage, site: liver, lesion: several types, types named in the paper, dosed 35 weeks, study length 120 weeks",0.861 mg/kg/day
same,TD50,"rat, strain Fischer 344, males, by gavage, site: lung, lesion: alveolar/bronchiolar tumor, dosed 35 weeks, study length 120 weeks",2.39 mg/kg/day
Cc1cc(Cc2cc(C)cc(C(C)(C)C)c2O)c(O)c(C(C)(C)C)c1,carcinogen call,"rat, strain Wistar, females, in feed, site: liver, lesion: one or several types, types not named, dosed 52 weeks, study length 52 weeks",negative (inactive)
same,carcinogen call,"rat, strain Wistar, females, in feed, site: liver, lesion: one or several types, types not named, dosed 78 weeks, study length 78 weeks",negative (inactive)
same,carcinogen call,[1],negative (inactive)
same,carcinogen call,"rat, strain Wistar, males, in feed, site: liver, lesion: one or several types, types not named, dosed 52 weeks, study length 52 weeks",negative (inactive)
same,TD50,"rat, strain Wistar, males, in feed, site: testis, lesion: interstitial-cell tumor, dosed 52 weeks, study length 52 weeks",44.5 mg/kg/day (inactive)
same,TD50,"rat, strain Wistar, males, in feed, site: testis, lesion: interstitial-cell tumor, dosed 78 weeks, study length 78 weeks",36.6 mg/kg/day (inactive)
